Reference: ChEMBL document CHEMBL2311428, “Binding partners for curcumin in human schwannoma cells: biologic implications” (Bioorg Med Chem, 2013)
pIC50: −log10 of the molar value. The source made the active and inactive calls. No cut-off for these calls is given here.

How the values were obtained:
[1] = Downregulation of Hsp27 expression in human keratinocytes at 10 uM; type: functional, cell-based; details: Keratinocyte
[2] = Cytotoxicity against human HEI-193 cells harboring NF2 mutant assessed as growth inhibition after 72 hrs by MTT assay; type: functional, cell-based; details: HEI-193, 72 h
[3] = biological target: Actin, cytoplasmic 1 (Homo sapiens) (UniProt P60709); assay: Binding affinity to beta-actin in human HEI-193 cells harboring NF2 mutant at 100 uM after 30 mins by SDS-PAGE analysis; type: cell-based
[4] = biological target: T1, D-3-phosphoglycerate dehydrogenase (Homo sapiens) (UniProt O43175); assay: Binding affinity to 3-PGDH in human HEI-193 cells harboring NF2 mutant at 100 uM after 30 mins by SDS-PAGE analysis; type: cell-based
T1 sequence (whole entry): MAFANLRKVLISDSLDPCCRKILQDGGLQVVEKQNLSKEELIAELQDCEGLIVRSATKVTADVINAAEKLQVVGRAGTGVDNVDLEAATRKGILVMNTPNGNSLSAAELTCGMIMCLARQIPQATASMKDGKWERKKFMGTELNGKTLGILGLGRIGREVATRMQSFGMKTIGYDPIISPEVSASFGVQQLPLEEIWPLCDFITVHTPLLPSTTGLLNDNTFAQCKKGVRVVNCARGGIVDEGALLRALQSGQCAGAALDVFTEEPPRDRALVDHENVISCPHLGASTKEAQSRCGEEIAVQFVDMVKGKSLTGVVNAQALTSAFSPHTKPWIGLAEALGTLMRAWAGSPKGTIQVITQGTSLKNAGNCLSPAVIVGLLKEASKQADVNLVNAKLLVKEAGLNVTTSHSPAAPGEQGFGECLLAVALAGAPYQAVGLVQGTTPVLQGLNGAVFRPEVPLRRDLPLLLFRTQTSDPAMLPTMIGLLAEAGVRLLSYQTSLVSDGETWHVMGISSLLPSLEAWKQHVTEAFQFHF

[5] = biological target: Heat shock protein HSP90 (Homo sapiens) (UniProt P07900+P08238); assay: Binding affinity to Hsp90 in human HEI-193 cells harboring NF2 mutant at 100 uM after 30 mins by SDS-PAGE analysis; type: cell-based
HEI-193 = assay: Binding affinity to Hsp70 in human HEI-193 cells harboring NF2 mutant at 100 uM after 30 mins by SDS-PAGE analysis; type: cell-based

Activity [3] | Activity [4] | Activity [5] | Compound | Activity [1] | pIC50 [2] | Activity (HEI-193)
 |  |  | COc1cc(/C=C/C(=O)CC(=O)/C=C/c2ccc(O)c(OC)c2)ccc1O [CURCUMIN] | 34% | 4.74 | 
Active | Active | Active | COc1cc(/C=C/C(=O)CC(=O)/C=C/c2ccc(OC(=O)CCCC(=O)NCCCOCCOCCOCCCNC(=O)CCCC[C@@H]3SC[C@@H]4NC(=O)N[C@@H]43)c(OC)c2)ccc1O |  | 4.44 | Active
